Measured values reported in PMC12113998, “Exploring Multivalent Architectures for Binding and Stabilization of N-Acetylgalactosamine 6-Sulfatase” (Molecules, 2025).
Values joined by “and” are separate entries in the source; they are usually repeats but may differ in a detail not shown here. Equal values may be shown once. Read-outs that look alike come from different tables or passages of the source. Marks after values point to notes of the source that are not given here. One block for each molecule: values may come before it.

Legend:
[1] = 1H-NMR stability study of the acetal in D2O at pH* 4.3, 37 °C; assay type: physicochemical; conditions: after 19 h
Method: The presence of pH-sensitive acetal groups in β-D-glucose-derived dendrimers led us to question whether these compounds would remain stable under the biological conditions of the screening assay. To assess their stability under the experimental conditions, we synthesized 2-(nonyloxy)tetrahydro-2H-pyran acetal following the literature procedure as a control and conducted an NMR stability study. The NMR sample was prepared in D2O at pH* 4.3, where pH* refers to the pH measured in a D2O solution using an H2O-calibrated pH meter. […] The hydrolysis of the 2-(nonyloxy)tetrahydro-2H-pyran acetal yielded nonan-1-ol and 5-hydroxypentanal. The compound stability at pH* 4.3, assessed by ¹H-NMR experiments, is reported in the Supporting Information.

[2] = target: T1, N-acetylgalactosamine-6-sulfatase (GALNS) (Homo sapiens, UniProt P34059); assay: GALNS inhibition in leukocyte homogenate from healthy donors (4-methylumbelliferyl-β-galactoside-6-sulfate substrate, fluorescence); assay type: biochemical; conditions: for inhibition at 1000 µM: pH 4.3, 1 mM inhibitor
T1 construct: Isolated leukocytes were disrupted by sonication; from tissue; host or cells: human leukocytes from healthy donors (sonicated homogenate)
T1 sequence (P34059 27-522): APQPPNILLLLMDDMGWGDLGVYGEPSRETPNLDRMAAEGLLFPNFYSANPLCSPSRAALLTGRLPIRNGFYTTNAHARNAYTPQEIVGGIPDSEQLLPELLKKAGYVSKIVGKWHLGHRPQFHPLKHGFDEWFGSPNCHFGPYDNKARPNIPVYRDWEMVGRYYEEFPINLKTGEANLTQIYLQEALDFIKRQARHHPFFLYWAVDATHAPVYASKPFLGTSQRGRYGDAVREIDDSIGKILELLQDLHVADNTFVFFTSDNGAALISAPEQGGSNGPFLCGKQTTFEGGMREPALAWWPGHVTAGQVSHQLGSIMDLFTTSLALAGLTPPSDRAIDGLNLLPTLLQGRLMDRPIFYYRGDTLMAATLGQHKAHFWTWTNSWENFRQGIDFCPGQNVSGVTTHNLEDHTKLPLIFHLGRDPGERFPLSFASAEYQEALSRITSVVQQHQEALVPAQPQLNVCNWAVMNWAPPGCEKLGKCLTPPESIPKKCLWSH
Method: A preliminary biological screening of the newly synthesized multivalent compounds at 1 mM inhibitor concentration was performed against GALNS in leukocytes isolated from healthy donors. Enzymatic assays were performed in triplicate by incubating leukocyte homogenate, compound, and substrate (4-methylumbelliferyl-β-galactoside-6-sulfate.Na) in Na-acetate/acetic acid buffer (pH 4.3) at 37 °C for 17 h, followed by the addition of β-galactosidase from Aspergillus oryzae and further incubation to release 4-methylumbelliferone. The fluorescence was measured, and the inhibition percentages were calculated relative to the control. The results are summarized in Table 1, Table 2, Table 3 and Table 4, along with new inhibition data toward GALNS of multivalent inhibitors whose synthesis was reported previously by our group (23, 26, 30, 51, 52–54). For compounds showing poor to negligible inhibitory activity, only the GALNS inhibition percentage at 1 mM was reported.
Enzymatic assays towards human GALNS in leukocytes isolated from healthy donors.
All experiments on biological materials were performed in accordance with the ethical standards of the institutional research committee and with the 1964 Helsinki Declaration and its later amendments. In keeping with ethical guidelines, all blood and cell samples were obtained for storage and analysed only after written informed consent of the patients (and/or their family members) was obtained, using a form approved by the local Ethics Committee (Assigned code: Lysolate “Late -onset Lysosomal Storage Disorders (LSDs) in the differential diagnosis of neurodegenerative diseases: development of new diagnostic procedures and focus on potential pharmacological chaperones (PCs).” Project ID code: 16774_bio, 5 May 2020, Comitato Etico Regionale per la Sperimentazione Clinica della Regione Toscana, Area Vasta Centro, Florence, Italy). Control and patient samples were anonymized and used only for research purposes.
A preliminary biological screening of compounds at 1 mM was performed towards GALNS in leukocytes isolated from healthy donors (controls). Isolated leukocytes were disrupted by sonication, and a micro BCA protein assay kit (Sigma–Aldrich) was used to determine the total protein amount for the enzymatic assay, according to the manufacturer instructions. Enzyme activity was measured by setting the reaction in 0.2 mL tubes and performing the experiments in triplicates as follows. Compound solution (3 µL), 4.29 μg/μL leukocyte homogenate 1:5 (7 μL) and 20 µL of 4-methylumbelliferyl-β-galactoside-6-sulfate.Na substrate solution (6.66mM) in Na-Acetate/acetic acid buffer (0.1 M/0.1 M, pH 4.3) containing 0.1 M NaCl, 0.02% (w/v) NaN3 and 5 mM Pb-acetate were incubated for 17 h at 37 °C. After step one, the tubes were placed on an ice cooler and the reaction was stopped by addition of 5 µL of Na-phosphate buffer (0.9 M, pH 4.3) containing 0.02 % (w/v) of NaN3 and by efficient mixing with vortex. Then, 10 µL of β-galactosidase from Aspergillus oryzae (β-Gal-A-10U) were added to each sample and samples were incubated for 2 h at 37°C. At the end of this period the tubes were placed on an ice cooler and the samples were transferred in a cooled flat –bottomed 96 well plate and the reaction was immediately stopped with 2 00 µL of NaHCO3/Na2CO3 buffer (0.5 M/0.5 M pH 10.7) containing 0.025% (w/v) of Triton X -100. Fluorescence was measured in a SpectraMax M2 microplate reader (Molecular-Devices) using a 365 nm excitation wavelength and a 435 nm emission wavelength. Percentage of GALNS inhibition was given with respect to the control (without compound).
Experiments were performed in triplicate, and the mean ± S. D. was calculated.
Figure S52. GALNS activity in the absence Figure S53. GALNS activity in the absence (Ctrl) and presence of scaffold 12 at a 1 mM (Ctrl) and presence of the new multivalent […]
The corresponding calculated inhibition of the main text) at a 1 mM concentration in […]

rhGALNS = system: rhGALNS; design: method as in PMID 31905715; conditions: preliminary studies; cited from earlier work
[3] = target: T1, N-acetylgalactosamine-6-sulfatase (GALNS); design: method as in doi:10.1039/C6RA15806D; conditions: cited from earlier work
GALNS = conditions: cited from earlier work
[4] = human leukocyte extracts, pH 4.3, 37 °C, 17 h
[5] = calculated considering 35 as the monovalent reference compound

stability at pH* 4.3 by 1H-NMR [1]: remained stable
Compound: CCCCCCCCCOC1CCCCO1 (centres unmarked) [2-(nonyloxy)tetrahydro-2H-pyran acetal, 2-(nonyloxy)tetrahydro-2H-pyran]

inhibition at 1000 µM [2, 4]: < 75%
Compound: OC[C@@H]1[C@@H](O)[C@H](O)CN1CCCCCCn1cc(COCC(COCc2cn(CCCCCCN3C[C@@H](O)[C@H](O)[C@H]3CO)nn2)OCc2cn(CCCCCCN3C[C@@H](O)[C@H](O)[C@H]3CO)nn2)nn1 [Compound 28]

Compound: O=C1[C@H](CC[C@H](O)c2ccc(F)cc2)[C@@H](c2ccc(O)cc2)N1c1ccc(F)cc1 [ezetimibe]
effect on activity and thermostability of rhGALNS (rhGALNS): increase the activity and thermostability of rhGALNS

inhibition at 1000 µM [2, 4]: 49%
Compound: O=C(NC(COCc1cn(CCN2C[C@@H](O)[C@H](O)[C@H]2CO)nn1)(COCc1cn(CCN2C[C@@H](O)[C@H](O)[C@H]2CO)nn1)COCc1cn(CCN2C[C@@H](O)[C@H](O)[C@H]2CO)nn1)c1ccc([N+](=O)[O-])cc1 [Compound 51]

Compound: CC(C)C[C@H]1C(=O)N2CCC[C@H]2[C@]2(O)O[C@](NC(=O)[C@@H]3C=C4c5cccc6[nH]c(Br)c(c56)C[C@H]4N(C)C3)(C(C)C)C(=O)N12 [bromocriptine]
effect on activity and thermostability of rhGALNS (rhGALNS): increase the activity and thermostability of rhGALNS

IC50 ([2]; human leukocyte extracts, cell prints mM under a µM head): > 1 mM | inhibition at 1000 µM [2, 4]: 16%
Compound: CC(=O)OCC1OC(OCCCCCCn2cc(CO)nn2)C(OC(C)=O)C(OC(C)=O)C1OC(C)=O (centres unmarked) [Compound 48]

rp/n (multivalent effect) [2, 5]: 2.4
Compound: O=C(CCCCC(=O)NC(COCc1cn(CCCCCCN2CC(O)C(O)C2CO)nn1)(COCc1cn(CCCCCCN2CC(O)C(O)C2CO)nn1)COCc1cn(CCCCCCN2CC(O)C(O)C2CO)nn1)NC(COCc1cn(CCCCCCN2CC(O)C(O)C2CO)nn1)(COCc1cn(CCCCCCN2CC(O)C(O)C2CO)nn1)COCc1cn(CCCCCCN2CC(O)C(O)C2CO)nn1 (centres unmarked) [Compound 33]

rp (relative potency) [2, 5]: 59 | rp/n (multivalent effect) [2, 5]: 6.5 ^[d] | rp (relative potency) ([2]; calculated with respect to the scaffold 38): 0.8
Compound: O=C(NC(COCc1cn(CCCCCCN2C[C@H](O)[C@H](O)[C@H]2CO)nn1)(COCc1cn(CCCCCCN2C[C@H](O)[C@H](O)[C@H]2CO)nn1)COCc1cn(CCCCCCN2C[C@H](O)[C@H](O)[C@H]2CO)nn1)c1cc(C(=O)NC(COCc2cn(CCCCCCN3C[C@H](O)[C@H](O)[C@H]3CO)nn2)(COCc2cn(CCCCCCN3C[C@H](O)[C@H](O)[C@H]3CO)nn2)COCc2cn(CCCCCCN3C[C@H](O)[C@H](O)[C@H]3CO)nn2)cc(C(=O)NC(COCc2cn(CCCCCCN3C[C@H](O)[C@H](O)[C@H]3CO)nn2)(COCc2cn(CCCCCCN3C[C@H](O)[C@H](O)[C@H]3CO)nn2)COCc2cn(CCCCCCN3C[C@H](O)[C@H](O)[C@H]3CO)nn2)c1 [Compound 2]
% Inhibition (1 mM) ([3]; 1 mM inhibitor, human leukocyte extracts): 85 ^[a] % | IC50 ([3]; human leukocyte extracts): 85 ± 8 µM | rp/n ([3]; positive MVE as previously reported): 6.5 and 6.5–9.2

inhibition at 1000 µM [2, 4]: < 75%
Compound: NC(COCc1cn(CCCCCCN2C[C@@H](O)[C@H](O)[C@H]2CO)nn1)(COCc1cn(CCCCCCN2C[C@@H](O)[C@H](O)[C@H]2CO)nn1)COCc1cn(CCCCCCN2C[C@@H](O)[C@H](O)[C@H]2CO)nn1 [Compound 26]

Compound: OC[C@@H](C[C@H]1N[C@H](CO)[C@@H](O)[C@@H]1O)OC[C@H](O)C[C@H]1N[C@H](CO)[C@@H](O)[C@@H]1O [Compound 3]
IC50 (GALNS): 0.3 µM

inhibition at 1000 µM [2, 4]: 9%
Compound: OCC1C(O)C(O)C2CC(n3cc(COCC(COCc4cn(C5CC6C(O)C(O)C(CO)N6C5)nn4)(COCc4cn(C5CC6C(O)C(O)C(CO)N6C5)nn4)COCc4cn(C5CC6C(O)C(O)C(CO)N6C5)nn4)nn3)CN12 (centres unmarked) [Compound 54]

inhibition at 1000 µM [2, 4]: 35%
Compound: OC[C@@H]1[C@@H](O)[C@H](O)CN1CCCCCCn1cc(COCC(COCc2cn(CCCCCCN3C[C@@H](O)[C@H](O)[C@H]3CO)nn2)(COCc2cn(CCCCCCN3C[C@@H](O)[C@H](O)[C@H]3CO)nn2)COCc2cn(CCCCCCN3C[C@@H](O)[C@H](O)[C@H]3CO)nn2)nn1 [Compound 30]

inhibition at 1000 µM [2, 4]: 25%
Compound: C#CCOCC(COCC#C)(COCC#C)NC(=O)c1cc(C(=O)NC(COCC#C)(COCC#C)COCC#C)cc(C(=O)NC(COCC#C)(COCC#C)COCC#C)c1 [Compound 12]

% Inhibition (1 mM) ([2]; 1 mM inhibitor, human leukocyte extracts, pH 4.3, 37 °C, 17 h): 33%
Compound: CCCCCCCCN1C[C@@H](O)C(O)[C@H](O)C1 [Compound 55]

Compound: O=C(Nc1cccc2c(=O)cc(-c3nnn[nH]3)oc12)c1ccc(OCCCCc2ccccc2)cc1 [pranlukast]
effect on activity and thermostability of rhGALNS (rhGALNS): increase the activity and thermostability of rhGALNS

inhibition at 1000 µM [2, 4]: 73%
Compound: OCC1C(O)C(O)CN1CCCCCCn1cc(COCC(COCc2cn(CCCCCCN3CC(O)C(O)C3CO)nn2)(COCc2cn(CCCCCCN3CC(O)C(O)C3CO)nn2)COCc2cn(CCCCCCN3CC(O)C(O)C3CO)nn2)nn1 (centres unmarked) [Compound 31]

IC50 ([2]; human leukocyte extracts): 0.07 ± 0.015 mM
Compound: O=C(NC(COCc1cn(CCCCCCN2CCCC2)nn1)(COCc1cn(CCCCCCN2CCCC2)nn1)COCc1cn(CCCCCCN2CCCC2)nn1)c1cc(C(=O)NC(COCc2cn(CCCCCCN3CCCC3)nn2)(COCc2cn(CCCCCCN3CCCC3)nn2)COCc2cn(CCCCCCN3CCCC3)nn2)cc(C(=O)NC(COCc2cn(CCCCCCN3CCCC3)nn2)(COCc2cn(CCCCCCN3CCCC3)nn2)COCc2cn(CCCCCCN3CCCC3)nn2)c1 [Compound 38]
